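Step 1: Grow cells in 96-well plates. Step 2: Expose to compound for 48 hours at 5 concentrations. Step 3: Interpolate endpoints linearly; if unreached, use highest concentration. GI50: concentration for 50% inhibition of growth. TGI marks complete inhibition of growth.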
Assays:
Experiment in all cases: growth of human tumour cells (NCI), 48 h
[1] = test system: 786-0 renal
[2] = test system: A498 renal
[3] = test system: A549 NSCLC
[4] = test system: ACHN renal
[5] = test system: BT-549 breast
[6] = test system: CAKI-1 renal
[7] = test system: CCRF-CEM leukemia
[8] = test system: COLO 205 colon
[9] = test system: DU-145 prostate
[10] = test system: EKVX NSCLC
[11] = test system: HCC-2998 colon
[12] = test system: HCT-116 colon
[13] = test system: HCT-15 colon
[14] = test system: HL-60(TB) leukemia
[15] = test system: HOP-62 NSCLC
[16] = test system: HOP-92 NSCLC
[17] = test system: HS 578T breast
[18] = test system: HT29 colon
[19] = test system: IGROV1 ovarian
[20] = test system: K-562 leukemia
[21] = test system: KM12 colon
[22] = test system: M14 melanoma
[23] = test system: MCF7 breast
[24] = test system: MDA-MB-231 breast
[25] = test system: MDA-MB-435
[26] = test system: MOLT-4 leukemia
[27] = test system: NCI-H226 lung
[28] = test system: NCI-H23 lung
[29] = test system: NCI-H460 lung
[30] = test system: NCI-H522 lung
[31] = test system: NCI/ADR-RES ovarian
[32] = test system: OVCAR-3 ovarian
[33] = test system: OVCAR-4 ovarian
[34] = test system: OVCAR-5 ovarian
[35] = test system: OVCAR-8 ovarian
[36] = test system: PC-3 prostate
[37] = test system: RPMI-8226 leukemia
[38] = test system: RXF 393 renal
[39] = test system: SF-268 CNS
[40] = test system: SF-295 CNS
[41] = test system: SF-539 CNS
[42] = test system: SK-MEL-2 melanoma
[43] = test system: SK-MEL-28 melanoma
[44] = test system: SK-MEL-5 melanoma
[45] = test system: SK-OV-3 ovarian
[46] = test system: SN12C renal
[47] = test system: SNB-19 CNS
[48] = test system: SNB-75 CNS
[49] = test system: SR leukemia
[50] = test system: SW-620 colon
[51] = test system: T-47D breast
[52] = test system: TK-10 renal
[53] = test system: U251 CNS
[54] = test system: UACC-257 melanoma
[55] = test system: UACC-62 melanoma
[56] = test system: UO-31 renal
[57] = test system: MALME-3M melanoma

C=C(C)C1CC/C(C)=C/CC[C@]2(C)O[C@H]2CC/C(COC(C)=O)=C\[C@@H]1O (stereo partly specified)
TGI [1]: > 50 µM | TGI [2]: > 50 µM | TGI [3]: > 50 µM | TGI [4]: > 50 µM | TGI [5]: > 50 µM | TGI [6]: > 50 µM | TGI [7]: > 50 µM | TGI [8]: > 50 µM | TGI [9]: > 50 µM | TGI [10]: > 50 µM | TGI [11]: > 50 µM | TGI [12]: > 50 µM | TGI [13]: > 50 µM | TGI [14]: > 50 µM | TGI [15]: > 50 µM | TGI [16]: > 50 µM | GI50 [17]: 8.27 µM | TGI [17]: > 50 µM | TGI [18]: > 50 µM | TGI [19]: > 50 µM | TGI [20]: > 50 µM | TGI [21]: > 50 µM | GI50 [22]: 8.28 µM | TGI [22]: > 50 µM | TGI [23]: > 50 µM | TGI [24]: > 50 µM | TGI [25]: > 50 µM | TGI [26]: > 50 µM | TGI [27]: > 50 µM | TGI [28]: > 50 µM | TGI [29]: > 50 µM | TGI [30]: > 50 µM | TGI [31]: > 50 µM | TGI [32]: > 50 µM | TGI [33]: > 50 µM | TGI [34]: > 50 µM | TGI [35]: > 50 µM | TGI [36]: > 50 µM | TGI [37]: > 50 µM | TGI [38]: > 50 µM | TGI [39]: > 50 µM | TGI [40]: > 50 µM | TGI [41]: > 50 µM | TGI [42]: > 50 µM | TGI [43]: > 50 µM | TGI [44]: > 50 µM | TGI [45]: > 50 µM | TGI [46]: > 50 µM | TGI [47]: > 50 µM | GI50 [48]: 0.625 µM | TGI [48]: 15.2 µM | TGI [49]: > 50 µM | TGI [50]: > 50 µM | TGI [51]: > 50 µM | TGI [52]: > 50 µM | TGI [53]: > 50 µM | TGI [54]: > 50 µM | TGI [55]: > 50 µM | TGI [56]: > 50 µM

Cc1oc(N)c(S(=O)(=O)c2ccc(Cl)cc2)c1C
TGI [1]: > 100 µM | TGI [2]: > 100 µM | TGI [3]: > 100 µM | TGI [4]: > 100 µM | TGI [5]: 60.5 µM | TGI [7]: > 100 µM | TGI [9]: > 100 µM | TGI [10]: > 100 µM | TGI [11]: > 100 µM | TGI [12]: > 100 µM | TGI [13]: > 100 µM | TGI [14]: > 100 µM | TGI [16]: > 100 µM | TGI [17]: > 100 µM | TGI [18]: > 100 µM | TGI [19]: > 100 µM | TGI [20]: > 100 µM | TGI [21]: > 100 µM | TGI [22]: > 100 µM | TGI [57]: > 100 µM | TGI [23]: > 100 µM | TGI [25]: > 100 µM | TGI [26]: > 100 µM | TGI [27]: > 100 µM | TGI [28]: > 100 µM | TGI [29]: > 100 µM | TGI [30]: > 100 µM | TGI [31]: > 100 µM | TGI [32]: > 100 µM | TGI [33]: > 100 µM | TGI [34]: > 100 µM | TGI [35]: > 100 µM | TGI [36]: 78 µM | TGI [37]: > 100 µM | TGI [38]: > 100 µM | TGI [39]: > 100 µM | TGI [40]: > 100 µM | TGI [41]: 64.2 µM | TGI [42]: > 100 µM | TGI [43]: > 100 µM | TGI [44]: > 100 µM | TGI [45]: > 100 µM | TGI [47]: > 100 µM | TGI [48]: > 100 µM | TGI [49]: > 100 µM | TGI [50]: > 100 µM | TGI [51]: > 100 µM | TGI [52]: > 100 µM | TGI [53]: > 100 µM | TGI [54]: > 100 µM | TGI [55]: > 100 µM | TGI [56]: > 100 µM
